Source: US11865126B2, “Method for treating anxiety disorders, headache disorders, and eating disorders with psilocybin” (priority 2019, dated 2024)

System: healthy subjects
Experiment: Phase 1 healthy volunteer study, single oral dose: treatment-emergent adverse events
Type: in vivo, human
Description: A Phase 1 randomized, double-blind, placebo-controlled study to evaluate the effect of psilocybin on cognitive and emotional processing as compared to placebo in healthy volunteers was conducted. The study investigated the short-term (Day 7) and long-term (Day 28) effects of moderate (10 mg) and high doses (25 mg) of psilocybin on key domains of cognition, such as episodic memory, attention, working and spatial memory, social cognition and elements of executive function, including cognitive flexibility.
90 healthy subjects were studied. Approximately 50% of the subjects were psilocybin-naïve. For subjects with prior psilocybin experience, the last exposure was at least 1 year prior to the signing of the Informed Consent Form (ICF). Approximately 50% of the subjects were female. Subjects were stratified by sex and age (18-35 years old; >35 years old).
Each subject was assigned 1 treatment bottle containing 5 capsules packaged in a double-blind fashion, depending on the randomized treatment arm, the bottle contained one of the following: • a. Psilocybin 10 mg: 2×5-mg oral psilocybin capsules plus 3× placebo capsules • b. Psilocybin 25 mg: 5×5-mg oral psilocybin capsules • c. Placebo: 5× placebo capsules
Each 5-mg oral psilocybin capsule comprised 5 mg crystalline psilocybin in the form of Polymorph A, 12.5 mg of SMCC 50, 79.5 mg of SMCC 90, 1 mg sodium starch glycolate, 1 mg colloidal silicon dioxide, and 1 mg sodium stearyl fumarate
Adverse events: Throughout the course of the study, all AEs were monitored and recorded. Each AE was classified according to the following criteria: • i. […] Moderate: The AE produces some impairment of functioning, but is not hazardous to the subject's health. • iii. Severe: The AE produces significant impairment of functioning or incapacitation and is a definite hazard to the subject's health.
Selected Adverse Events of included: • (a) Euphoric mood • (b) Dissociative disorder • (c) Hallucination • (d) Psychotic disorder • (e) Cognitive disorder • (f) Disturbance in attention • (g) Altered mood • (h) Impairment of psychomotor skills • (i) Inappropriate affect • (j) Overdose • (k) Intentional product misuse • (l) Illusion
For example, drug-induced hepatitis that resolved without evidence of hepatic failure would not be considered life threatening even though drug-induced hepatitis can be fatal. • (c) Inpatient hospitalization or prolongation of existing hospitalization. • (d) Persistent or significant disability/incapacity. • (e) Congenital anomaly/birth defect in the offspring of a subject who received psilocybin. • (f) Other: Important medical events that may not result in death, be life-threatening, or require hospitalization, may be considered an SAE when, based upon appropriate medical judgment, they may jeopardize the subject and may require medical or surgical intervention to prevent one of the outcomes listed in this definition. […] Visits:
Visit 3 (V3): Drug Administration (Day 0): The subject was asked to eat a light breakfast at least two hours prior to coming to the clinic for study drug administration. On Day 0 (V3), the subject underwent the SSTS, had vital signs obtained, medications reviewed, AEs recorded and eligibility reviewed prior to being randomized to study drug. The study drug was administered to up to six subjects simultaneously in individual beds separated by a curtain. The subject was invited to put on eyeshades and headphones, lie down and listen to calming music for the rest of the session (six hours). The subject was supported 1:1 with a chaperone and supervised by the study psychiatrist and lead therapist.
Recording of adverse events and prior/concomitant medication was performed at each visit.
During administration of psilocybin, each subject received one on one support from a trained assisting therapist and each dosing session was supervised by a study psychiatrist and a lead therapist. […]

## CN(C)CCc1c[nH]c2cccc(OP(=O)(O)O)c12 [psilocybin]
10 mg
  AEs potentially related to study treatment, % of AEs in arm: 92.6%
  Affect lability, worst severity Mild: Events: 3
  Affect lability, worst severity Mild: N (%): 3 (10.0)
  Affect lability, worst severity Moderate: Events: 2
  Affect lability, worst severity Severe: Events: 0
  Affect lability, worst severity Severe: N (%): 0
  Affect lability: Events: 5
  Any Selected TEAE: % of subjects: (90.0) %
  Any Selected TEAE: N (%): 27
  Any TEAE leading to death: Events: 0
  Any TEAE leading to death: N (%): 0
  Any TEAE leading to study discontinuation: Events: 0
  Any TEAE leading to study discontinuation: N (%): 0
  Any TEAE related to study treatment: % of subjects: (96.7) %
  Any TEAE related to study treatment: N (%): 29
  Any TEAE, worst severity Mild: Events: 12
  Any TEAE, worst severity Mild: N (%): 6 (20.0)
  Any TEAE, worst severity Moderate: Events: 38
  Any TEAE, worst severity Severe: Events: 22
  Any TEAE: % of subjects: 96.7%
  Any serious TEAE related to study treatment: Events: 0
  Any serious TEAE related to study treatment: N (%): 0
  Any serious TEAE: Events: 0
  Any serious TEAE: N (%): 0
  Any severe TEAE: % of subjects: (33.3) %
  Any severe TEAE: Events: 22
  Any severe TEAE: N (%): 10
  Emotional disorder, worst severity Mild: Events: 1
  Emotional disorder, worst severity Moderate: Events: 1
  Emotional disorder, worst severity Severe: Events: 0
  Emotional disorder, worst severity Severe: N (%): 0
  Emotional disorder: Events: 2
  Euphoric mood, worst severity Mild: Events: 0
  Euphoric mood, worst severity Mild: N (%): 0
  Euphoric mood, worst severity Moderate: Events: 6
  Euphoric mood, worst severity Moderate: N (%): 6 (20.0)
  Euphoric mood, worst severity Severe: Events: 1
  Euphoric mood: Events: 7
  Fatigue, worst severity Mild: Events: 6
  Fatigue, worst severity Mild: N (%): 6 (20.0)
  Fatigue, worst severity Moderate: Events: 3
  Fatigue, worst severity Severe: Events: 1
  Fatigue: Events: 10
  Fatigue: N (%): 9 (30.0)
  Feeling abnormal, worst severity Mild: Events: 3
  Feeling abnormal, worst severity Mild: N (%): 3 (10.0)
  Feeling abnormal, worst severity Moderate: Events: 1
  Feeling abnormal, worst severity Severe: Events: 0
  Feeling abnormal, worst severity Severe: N (%): 0
  Feeling abnormal: Events: 4
  Feeling of relaxation: Events: 5
  Feeling of relaxation: N (%): 3 (10.0)
  Gastrointestinal disorders, worst severity Mild: Events: 3
  Gastrointestinal disorders, worst severity Mild: N (%): 3 (10.0)
  Gastrointestinal disorders, worst severity Moderate: Events: 1
  Gastrointestinal disorders, worst severity Severe: Events: 0
  Gastrointestinal disorders, worst severity Severe: N (%): 0
  Gastrointestinal disorders: Events: 4
  General disorders and administration site conditions, worst severity Mild: Events: 17
  General disorders and administration site conditions, worst severity Moderate: Events: 6
  General disorders and administration site conditions, worst severity Moderate: N (%): 3 (10.0)
  General disorders and administration site conditions, worst severity Severe: Events: 1
  General disorders and administration site conditions: Events: 27
  Hallucination, auditory, worst severity Mild: Events: 1
  Hallucination, auditory, worst severity Moderate: Events: 1
  Hallucination, auditory, worst severity Severe: Events: 2
  Hallucination, auditory: Events: 4
  Hallucination, tactile: Events: 2
  Hallucination, visual, worst severity Mild: Events: 3
  Hallucination, visual, worst severity Mild: N (%): 3 (10.0)
  Hallucination, visual, worst severity Moderate: Events: 8
  Hallucination, visual, worst severity Severe: Events: 7
  Hallucination, visual: Events: 20
  Hallucination, worst severity Mild: Events: 0
  Hallucination, worst severity Mild: N (%): 0
  Hallucination, worst severity Moderate: Events: 3
  Hallucination, worst severity Moderate: N (%): 3 (10.0)
  Hallucination, worst severity Severe: Events: 0
  Hallucination, worst severity Severe: N (%): 0
  Hallucination: Events: 3
  Hallucination: N (%): 3 (10.0)
  Headache, worst severity Mild: Events: 12
  Headache, worst severity Mild: N (%): 9 (30.0)
  Headache, worst severity Moderate: Events: 0
  Headache, worst severity Moderate: N (%): 0
  Headache, worst severity Severe: Events: 0
  Headache, worst severity Severe: N (%): 0
  Headache: Events: 12
  Headache: N (%): 9 (30.0)
  Hypoaesthesia, worst severity Mild: Events: 2
  Hypoaesthesia, worst severity Moderate: Events: 0
  Hypoaesthesia, worst severity Moderate: N (%): 0
  Hypoaesthesia, worst severity Severe: Events: 0
  Hypoaesthesia, worst severity Severe: N (%): 0
  Hypoaesthesia: Events: 2
  Illusion, worst severity Mild: Events: 7
  Illusion, worst severity Moderate: Events: 6
  Illusion, worst severity Severe: Events: 0
  Illusion, worst severity Severe: N (%): 0
  Illusion: Events: 25
  Infections and infestations, worst severity Mild: Events: 2
  Infections and infestations, worst severity Moderate: Events: 2
  Infections and infestations, worst severity Severe: Events: 0
  Infections and infestations, worst severity Severe: N (%): 0
  Infections and infestations: Events: 4
  Investigations, worst severity Mild: Events: 2
  Investigations, worst severity Moderate: Events: 0
  Investigations, worst severity Moderate: N (%): 0
  Investigations, worst severity Severe: Events: 0
  Investigations, worst severity Severe: N (%): 0
  Investigations: Events: 2
  Mental fatigue: Events: 0
  Mental fatigue: N (%): 0
  Mood altered, worst severity Mild: Events: 2
  Mood altered, worst severity Moderate: Events: 8
  Mood altered, worst severity Severe: Events: 9
  Mood altered, worst severity Severe: N (%): 6 (20.0)
  Mood altered: Events: 23
  Musculoskeletal and connective tissue disorders, worst severity Mild: Events: 0
  Musculoskeletal and connective tissue disorders, worst severity Mild: N (%): 0
  Musculoskeletal and connective tissue disorders, worst severity Moderate: Events: 1
  Musculoskeletal and connective tissue disorders, worst severity Severe: Events: 0
  Musculoskeletal and connective tissue disorders, worst severity Severe: N (%): 0
  Musculoskeletal and connective tissue disorders: Events: 1
  Nausea: Events: 1
  Nervous system disorders, worst severity Mild: Events: 23
  Nervous system disorders, worst severity Moderate: Events: 8
  Nervous system disorders, worst severity Moderate: N (%): 6 (20.0)
  Nervous system disorders, worst severity Severe: Events: 0
  Nervous system disorders, worst severity Severe: N (%): 0
  Nervous system disorders: Events: 35
  Paraesthesia, worst severity Mild: Events: 4
  Paraesthesia, worst severity Moderate: Events: 0
  Paraesthesia, worst severity Moderate: N (%): 0
  Paraesthesia, worst severity Severe: Events: 0
  Paraesthesia, worst severity Severe: N (%): 0
  Paraesthesia: Events: 4
  Psychiatric disorders, worst severity Mild: Events: 6
  Psychiatric disorders, worst severity Moderate: Events: 29
  Psychiatric disorders, worst severity Severe: Events: 21
  Respiratory, thoracic and mediastinal disorders: Events: 0
  Respiratory, thoracic and mediastinal disorders: N (%): 0
  Somatic hallucination, worst severity Mild: Events: 1
  Somatic hallucination, worst severity Moderate: Events: 7
  Somatic hallucination, worst severity Severe: Events: 0
  Somatic hallucination, worst severity Severe: N (%): 0
  Somatic hallucination: Events: 8
  Tension headache, worst severity Mild: Events: 1
  Tension headache, worst severity Moderate: Events: 2
  Tension headache, worst severity Severe: Events: 0
  Tension headache, worst severity Severe: N (%): 0
  Tension headache: Events: 3
  Tension headache: N (%): 3 (10.0)
  Time perception altered, worst severity Mild: Events: 1
  Time perception altered, worst severity Moderate: Events: 1
  Time perception altered, worst severity Severe: Events: 0
  Time perception altered, worst severity Severe: N (%): 0
  Time perception altered: Events: 2
10 mg and 25 mg
  Incidence of Illusion, Hallucination (visual), Mood altered, Headache, Fatigue and Euphoric mood compared to placebo: higher
10 mg and 25 mg arms
  Majority of the severe TEAEs (system organ class): psychiatric disorders
10 mg and 25 mg, 12-week study
  Serious adverse events or adverse events that led to withdrawal: no serious adverse events or adverse events that led to withdrawal
10 mg psilocybin (n = 30)
  Reported 'Mood altered' events: Being less judgmental: 1
  Reported 'Mood altered' events: Calm: 0
  Reported 'Mood altered' events: Clarity of thought: 0
  Reported 'Mood altered' events: Contemplative state: 1
  Reported 'Mood altered' events: Feeling more moody/sensitive: 1
  Reported 'Mood altered' events: Feeling of adrenaline release: 0
  Reported 'Mood altered' events: Feeling rested: 1
  Reported 'Mood altered' events: Increased compassion: 0
  Reported 'Mood altered' events: Increased creativity: 0
  Reported 'Mood altered' events: Increased empathy: 2
  Reported 'Mood altered' events: Increased sense of connectedness: 0
  Reported 'Mood altered' events: Increased wit: 1
  Reported 'Mood altered' events: Introspection: 5
  Reported 'Mood altered' events: Laughter: 1
  Reported 'Mood altered' events: More socially upbeat: 0
  Reported 'Mood altered' events: Negative mood: 0
  Reported 'Mood altered' events: Reflections: 3
  Reported 'Mood altered' events: Saw themselves from a new perspective: 0
  Reported 'Mood altered' events: Sense of oneness: 4
  Reported 'Mood altered' events: Sense of openness: 1
  Reported 'Mood altered' events: Unusual appreciation of music: 0
10 mg, listed as Psilocybin
  Any TEAE: % of subjects: (96.7) %
25 mg
  AEs potentially related to study treatment, % of AEs in arm: 95.9%
  Affect lability, worst severity Mild: Events: 2
  Affect lability, worst severity Moderate: Events: 1
  Affect lability, worst severity Severe: Events: 0
  Affect lability, worst severity Severe: N (%): 0
  Affect lability: Events: 3
  Affect lability: N (%): 3 (10.0)
  Any Selected TEAE: % of subjects: (90.0) %
  Any Selected TEAE: N (%): 27
  Any TEAE leading to death: Events: 0
  Any TEAE leading to death: N (%): 0
  Any TEAE leading to study discontinuation: Events: 0
  Any TEAE leading to study discontinuation: N (%): 0
  Any TEAE related to study treatment: % of subjects: (96.7) %
  Any TEAE related to study treatment: N (%): 29
  Any TEAE, worst severity Mild: Events: 14
  Any TEAE, worst severity Mild: N (%): 3 (10.0)
  Any TEAE, worst severity Moderate: Events: 52
  Any TEAE, worst severity Severe: Events: 29
  Any TEAE: % of subjects: 96.7%
  Any serious TEAE related to study treatment: Events: 0
  Any serious TEAE related to study treatment: N (%): 0
  Any serious TEAE: Events: 0
  Any serious TEAE: N (%): 0
